According to patent publication US10759826B2, “15β-substituted estrone derivatives as selective inhibitors of 17β-hydroxysteroid-dehydrogenases, method of preparation and use thereof” (USTAV ORGANICKE CHEMIE A BIOCHEMIE AV CR, V.V.I., priority 2016, dated 2020):

Tests used:
[1] = molecular target: T1, progesterone receptor (PR) (Homo sapiens, UniProt P06401); assay: PR luciferase reporter assay in U2OS cells; assay type: cell-based; details: read-out: ANTAGONIST mode PR IC50
T1 construct: expressed in transfected cells

CaOV-3 = assay: 7 day proliferation assay, CaOV-3; assay type: cell-based; details: 1 μmol·l^−1, 7 days
Description: In this study, T47D cells were propagated in RPMI 1640 medium supplemented with 10% fetal bovine serum, 2 mmol^·l^−1 glutaMAX (Thermo Fisher Scientific, MA, USA), and penicillin/streptomycin (Thermo Fisher Scientific, Waltham, USA) and incubated in a 5% CO2-humidified atmosphere at 37° C. to the amount needed for the experiment. Two days prior to testing of compounds, growth medium was changed to medium without phenol red, supplemented with 2 mmol^·l^−1 Glutamax and 4% FBS depleted of lipophilic components (including the endogenous estrogenic substances) (Hyclone, GE Healthcare Life Sciences, USA). Two days after the medium replacement, the cells were harvested, counted and resuspended in a medium. Cells were dispensed with liquid dispenser Multidrop (Thermo Fisher Scientific, Waltham, USA), to the cell culture treated, 12-well plates (Corning Inc., NY, USA) at 100 000 cells/well in 1 mL of total media volume. […] After 7 days of cell cultivation with compounds, cells were harvested and counted. […]
Compounds 9 and 12 were tested in the proliferation assay with cell lines derived from the triple negative breast cancer (MDA-MB-231), AR-negative prostate cancer (PC3, DU145) and ovarian cancer (SK-OV-3, CaoV-3). […] At the end of the treatment, cells were harvested and counted. […]

human 17βHSD type 1 = molecular target: T2, human 17βHSD type 1 (Homo sapiens, UniProt P14061); assay: Inhibition of recombinant 17βHSD type 1, tritium-labeled substrate conversion; assay type: biochemical; details: for inhibition at 0.1 µM: 0.1 μmol · l^−1 test substance; for inhibition at 0.1 µM / inhibition at 1 µM: read-out: % of inhibition of human 17βHSD1; for inhibition at 1 µM: 1 μmol · l^−1 test substance
T2 construct: made in house; expressing system suspended in buffer, not purified
T2 sequence (P14061 1-328): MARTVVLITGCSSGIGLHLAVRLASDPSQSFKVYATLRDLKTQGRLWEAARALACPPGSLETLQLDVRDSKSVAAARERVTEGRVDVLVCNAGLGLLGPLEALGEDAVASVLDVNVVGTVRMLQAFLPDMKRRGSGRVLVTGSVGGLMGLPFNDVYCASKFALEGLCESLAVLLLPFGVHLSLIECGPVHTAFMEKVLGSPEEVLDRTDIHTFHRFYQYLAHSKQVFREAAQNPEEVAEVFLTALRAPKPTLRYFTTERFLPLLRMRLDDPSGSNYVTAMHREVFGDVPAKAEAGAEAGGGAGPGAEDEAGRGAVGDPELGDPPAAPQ
Description: The inhibitory activity of the test substances was determined for individual isoenzymes from the 17βHSD family, specifically these were the types 1, 2, 3, 4, 5 and 7. Escherichia coli and mammalian cells expression systems were used for recombinant expression of individual isozymes of human 17βHSD. Only in the case of 17HSD5 the enzyme was partially purified and supernatant obtained by centrifugation of the bacterial lysate was used for testing. Systems expressing specific 17βHSD type were suspended in a reaction buffer and incubated with tritium-labeled substrates and respective cofactors at 37° C. in two parallel tests: the control arrangement (DMSO without the inhibitor) and the test arrangement (DMSO with the inhibitor). DMSO serves as a negative control in this case. After 20-30% of the substrate was converted by the activity of the enzyme to the product in a control test, both tests were terminated. Substrate and product from the test arrangement were isolated by SPE (solid phase extraction), and then separated by reverse phase HPLC. Substrate conversion was determined by integration of the signals of the substrate and product, and was expressed in %. For the purposes of the subsequent calculation of enzyme inhibition, the conversion of the control test was designated as 0% inhibition. All tests were performed in triplicates. IC50 values were subsequently determined by a standard method using the “One Ligand Binding” model of SigmaPlot kinetics module (Schustera et. al. J. Ster. Biochem. Mol. Biol. 2011, 125, 148; Möller et. al. Biioorg. Med. Chem. Lett. 2009, 19, 6740; Möller et. al. PLoS One, 2010, 5, 6, e10969).

androgen receptor (AR) = molecular target: T3, androgen receptor (AR) (Homo sapiens, UniProt P10275); assay: AR luciferase reporter assay in U2OS cells; assay type: cell-based; details: for AR antagonism in words: testing range 10 μmol·l^−1 to 1 nmol·l^−1
T3 construct: expressed in transfected cells
T3 sequence (P10275 1-920): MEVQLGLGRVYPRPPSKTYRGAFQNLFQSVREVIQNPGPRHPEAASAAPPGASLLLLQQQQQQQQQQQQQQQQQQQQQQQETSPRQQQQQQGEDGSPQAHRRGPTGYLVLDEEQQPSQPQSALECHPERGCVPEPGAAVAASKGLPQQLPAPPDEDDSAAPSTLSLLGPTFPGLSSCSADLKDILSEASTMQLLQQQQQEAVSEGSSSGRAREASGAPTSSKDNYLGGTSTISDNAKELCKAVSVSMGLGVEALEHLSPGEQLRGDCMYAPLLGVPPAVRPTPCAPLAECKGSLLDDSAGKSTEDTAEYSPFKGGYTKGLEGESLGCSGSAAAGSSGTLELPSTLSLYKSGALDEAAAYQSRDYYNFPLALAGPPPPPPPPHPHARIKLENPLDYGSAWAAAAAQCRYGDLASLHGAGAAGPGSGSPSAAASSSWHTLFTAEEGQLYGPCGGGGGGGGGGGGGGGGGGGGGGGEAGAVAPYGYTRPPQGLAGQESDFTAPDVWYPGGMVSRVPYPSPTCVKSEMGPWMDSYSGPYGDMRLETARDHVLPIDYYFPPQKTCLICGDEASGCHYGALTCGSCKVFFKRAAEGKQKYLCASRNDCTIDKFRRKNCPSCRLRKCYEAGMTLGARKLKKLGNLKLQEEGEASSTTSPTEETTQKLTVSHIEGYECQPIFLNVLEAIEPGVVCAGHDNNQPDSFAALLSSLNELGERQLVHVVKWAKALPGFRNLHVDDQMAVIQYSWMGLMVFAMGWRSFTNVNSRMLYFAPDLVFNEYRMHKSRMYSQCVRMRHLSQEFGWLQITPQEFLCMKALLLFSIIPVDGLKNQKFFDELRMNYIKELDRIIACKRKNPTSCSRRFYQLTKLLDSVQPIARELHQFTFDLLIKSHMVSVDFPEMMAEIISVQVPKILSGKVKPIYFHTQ

T1 sequence (P06401 whole entry): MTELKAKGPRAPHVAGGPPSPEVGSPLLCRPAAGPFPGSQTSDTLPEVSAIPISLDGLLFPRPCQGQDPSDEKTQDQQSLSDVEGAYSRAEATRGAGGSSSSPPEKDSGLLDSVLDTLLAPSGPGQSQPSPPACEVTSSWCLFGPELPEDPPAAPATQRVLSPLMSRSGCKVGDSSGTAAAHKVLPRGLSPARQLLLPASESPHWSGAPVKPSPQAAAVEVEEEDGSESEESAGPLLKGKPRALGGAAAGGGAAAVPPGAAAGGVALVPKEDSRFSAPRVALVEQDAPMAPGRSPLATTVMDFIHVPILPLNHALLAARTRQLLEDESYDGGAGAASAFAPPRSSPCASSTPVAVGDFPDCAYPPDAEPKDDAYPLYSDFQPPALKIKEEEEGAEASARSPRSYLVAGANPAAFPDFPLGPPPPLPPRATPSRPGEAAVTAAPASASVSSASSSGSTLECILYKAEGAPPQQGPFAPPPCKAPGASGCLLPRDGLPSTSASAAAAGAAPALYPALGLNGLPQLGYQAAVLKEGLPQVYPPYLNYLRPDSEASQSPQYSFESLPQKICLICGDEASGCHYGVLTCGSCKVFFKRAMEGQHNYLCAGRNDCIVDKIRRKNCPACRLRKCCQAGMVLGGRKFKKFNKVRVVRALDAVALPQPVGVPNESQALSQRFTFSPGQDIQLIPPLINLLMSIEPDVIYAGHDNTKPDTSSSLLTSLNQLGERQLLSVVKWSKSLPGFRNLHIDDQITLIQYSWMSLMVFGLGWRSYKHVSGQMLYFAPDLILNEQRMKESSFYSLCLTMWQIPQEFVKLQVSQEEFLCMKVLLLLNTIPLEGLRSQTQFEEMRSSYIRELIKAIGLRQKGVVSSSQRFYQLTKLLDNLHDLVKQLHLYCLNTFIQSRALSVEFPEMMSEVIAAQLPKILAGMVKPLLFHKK

Row | Structure (SMILES) | IC50 [1] [µM] | % of survived cells compared to untreated samples, CaOV-3 (CaOV-3) [%] | inhibition at 0.1 µM (human 17βHSD type 1) [%] | inhibition at 1 µM (human 17βHSD type 1) [%] | IC50 (androgen receptor (AR); antagonist mode, 1 nmol·l^−1 DHT) [µM] | AR antagonism in words (androgen receptor (AR)) | IC50 (human 17βHSD type 1; read-out: 17βHSD1 IC50) [µM]
1 | CCOc1ccc(CC[C@@H]2CC(=O)[C@@]3(C)CC[C@@H]4c5ccc(O)cc5CC[C@H]4[C@H]23)cc1 [Compound 12, 15β-(4-Ethoxyphenethyl)-3-hydroxy-estra-1,3,5(10)-trien-17-one] | 13.7 | 88 | 85 | 88 | 89.1 | antagonists of both types of receptors | 
2 | COc1ccc(CC[C@@H]2CC(=O)[C@@]3(C)CC[C@@H]4c5ccc(O)cc5CC[C@H]4[C@H]23)cc1 [Compound 9, 3-Hydroxy-15β-(4-methoxyphenethyl)-estra-1,3,5 (10)-trien-17-one] | 13.6 | 94 | 91 | 100 |  | AR antagonist | 0.01
